According to paper PMC8229550 (Pharmaceuticals, 2021):
Where two headings read alike, the source gives them in different places.

What was measured:
MTT cytotoxicity assay = assay type: cell-based; details: normal human adult dermal fibroblasts (HDFa)
Protocol: To determine the half-maximal cell toxicity concentration (CC50) to assess the compound toxicity, we prepared stock solutions of the test compounds in 10% DMSO with ddH2O and further diluted with DMEM to the working solutions. The cytotoxic effect of the tested compounds was evaluated in normal human adult dermal fibroblasts (HDFa) (Sigma-Aldrich, Dorset, UK) using the previously reported 3-(4,5-dimethylthiazol-2-yl)-2,5-diphenyltetrazolium bromide (MTT) method with slight adjustments. Briefly, 100 µL cells/well at a density of 3 × 10^5 cells/mL were placed in 96-well plates and then incubated in 5% CO2 for 24 h at 37 °C. After 24 h, different concentrations of the test compound(s) were added to the cells in triplicate. After another 24 h, the supernatant was removed, and cells were washed with sterile 1× PBS three times. Then, 20 µL of 5 mg/mL MTT stock solution was added to each well, and the plate was incubated at 37 °C for 4 h. The produced formazan crystals were dissolved in 200 µL of acidified isopropanol (0.04 M HCl in absolute isopropanol). After that, we measured the absorbance of formazan solutions at λmax 540 nm using a BioTek Lx800 microplate reader (BioTek Instrument Ltd., Bedfordshire, UK). […]

[1] = target: SARS-CoV-2 main protease (M^Pro) (Severe acute respiratory syndrome coronavirus 2, UniProt P0DTD1); experiment: biochemical

SMILES | CC50 at 24 h (MTT cytotoxicity assay) [µM] | IC50 [1] [µM] | Ki [1] [µM] | Potency relative to α-rubromycin (times more potent) ([1]; M^Pro inhibition, versus α-rubromycin) [times] | Ki ([1]; 0–250 µM substrate, 0–50 µM inhibitor, read-out: M^Pro inhibition constant Ki) [µM] | IC50 ([1]; fluorescence, 40 µM substrate, 4 h at 20 °C, read-out: M^Pro inhibitory activity IC50) [µM]
O=C(O)c1cc(=O)c2c(OCC(O)COc3cccc4oc(C(=O)O)cc(=O)c34)cccc2o1 [Cromoglicic acid, cromoglicic acid] | > 100 | 1.1 | 0.68 | 4.5 |  | 
COC(=O)c1cc2cc(CCc3cc4c(o3)C(=O)c3c(O)c(OC)cc(OC)c3C4=O)c(O)c(O)c2c(=O)o1 [α-Rubromycin, α-rubromycin] | 16.7 |  |  |  | 3.22 | 5.4
